According to patent US7572765B2, “Conformationally constrained parathyroid hormone (PTH) analogs” (The General Hospital Corporation, priority 2001, dated 2009):

Key:
[1] = Circular dichroism spectroscopy (helical content); assay type: physicochemical
Procedure: Circular Dichroism. Circular Dichroism spectra were recorded on a Jasco model 710 spectropolarimeter; peptides were analyzed at a concentration of20 μM in 50 mM sodium phosphate buffer pH 7.4, or the same buffer containing 2,2,2-trifluoroethanol at 20% (v/v). Spectroscopic scans were preformed at 20° C. and at wavelengths between […], with data recored at each 1 nM interval. The spectral bandwidth was 1.5 nM and 8 scans were accumulated and averaged for each sample. At each wavelength, the mean residue elipticity [θ×100/l×C×n); where θ is the raw elipticity value (in dimensions of millidegree), l is the sample path length, C=is the molar peptide concentration, and n is the number of residues in the peptide (Bowen, W. P., and Jerman, J. C., Trends in Pharmacol. Sci. 16: 413-417 (1995)). The helical content of each peptide was estimated by dividing [θ] observed at 222 nM for that peptide by −28,100, which is the reported [θ]222obs for a model helical decapeptide (Bowen, W. P., and Jerman, J. C., Trends in Pharmacol. Sci. 16: 413-417 (1995)).
Circular dichroism (CD) spectroscopy was used to analyze the potential effects that the Aib substitutions had on peptide secondary structure when the peptides were free in solution. Samples were analyzed in both aqueous phosphate buffer and in phosphate buffer containing 2,2,2-trifloroethanol, an organic solvent which promotes helical structure in oligopeptides, including PTH peptide fragments (Pellegrini, M., et al., J. Biol. Chem. 273:10420-10427 (1998); Gronwald, W., et al., Biol. Chem. Hoppe Seyler 377:175-186 (1996); Barden, J. A., and Kemp, B. E., Biochemistry 32:7126-7132 (1993)). In phosphate buffer, the helical content of each peptide, estimated from the elipticity observed at 222 nM, was small (≦16%); however, [Aib^1,3,M]PTH(1-14) contained nearly twice as much helix as did [M]PTH(1-14) (16% and 8.1% respectively), as did [Aib^1,3,M]PTH(1-1l), as compared to […] (13% and 7.5% respectively, Table 4). […] The higher helical contents of these two peptides were evident not only from the negative elipticities at […] and 222 nM, but also from the positive elipticities at 192 nM (FIG. 6).

human P1R = molecular target: T1, human P1R (Homo sapiens, UniProt Q03431); conditions: HKRK-B28 cells; previously shown (Shimizu et al., Endocrinology 2001); read-out: cAMP EC50; cited from earlier work
T1 construct: expressed in transfected cells; host or cells: HKRK-B28 (porcine kidney LLC-PK1, stably transfected)
T1 sequence (Q03431 27-593): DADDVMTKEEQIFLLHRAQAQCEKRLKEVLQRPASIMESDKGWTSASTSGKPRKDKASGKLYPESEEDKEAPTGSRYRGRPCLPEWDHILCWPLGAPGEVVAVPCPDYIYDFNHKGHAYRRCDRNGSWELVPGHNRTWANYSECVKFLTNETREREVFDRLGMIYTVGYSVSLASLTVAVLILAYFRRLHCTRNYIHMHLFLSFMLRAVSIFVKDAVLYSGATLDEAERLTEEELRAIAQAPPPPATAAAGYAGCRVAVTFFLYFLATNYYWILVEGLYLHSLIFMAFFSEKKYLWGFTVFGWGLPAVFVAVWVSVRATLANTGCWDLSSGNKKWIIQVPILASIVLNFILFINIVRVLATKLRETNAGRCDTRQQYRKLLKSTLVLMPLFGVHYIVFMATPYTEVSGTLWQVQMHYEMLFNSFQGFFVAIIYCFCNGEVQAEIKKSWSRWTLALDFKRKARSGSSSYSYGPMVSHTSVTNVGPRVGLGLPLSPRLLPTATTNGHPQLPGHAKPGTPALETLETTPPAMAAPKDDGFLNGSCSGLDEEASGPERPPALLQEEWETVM

[0]222obs × 10^−3, Phos. ([1]; 20 μM peptide, 50 mM phosphate buffer pH 7.4): −2.1
[0]222obs × 10^−3, Phos + TFE ([1]; 20 μM peptide, 50 mM phosphate buffer with trifluoroethanol (20%)): −9.9
helical residues (%), Phos + TFE ([1]; 50 mM phosphate buffer with trifluoroethanol (20%), from elipticity at 222 nM): 35%
helical residues (%), Phos. ([1]; 50 mM phosphate buffer, from elipticity at 222 nM): 7.5%
Substance: [Ala^3,Gln^10,Har^11]PTH(1-11)amide [[M]PTH(1-11)]
EC50 (human P1R): 3000 nM
